Experimental data: patent US12558331B2, “Pregabalin formulations and use thereof” (priority 2019, dated 2026)

Tests used:
[1] = Water solubility of pregabalin as the function of pH at 5° C.; assay type: physicochemical
Experimental: Water solubility at 5° C. of pregabalin as such and with the addition of 2.0 mg/ml sodium benzoate was measured as the function of pH.

cats = assay: Randomized, double-blind, placebo-controlled clinical study: transportation and veterinary visit anxiety and fear in cats; assay type: in vivo, cat; conditions: 5 mg/kg orally
Experimental: A randomized, double-blind, placebo-controlled parallel-group, multicenter clinical study was conducted for evaluating the efficacy and safety of pregabalin for the treatment or prevention of transportation and veterinary visit anxiety and fear in cats. Cats were randomised to receive either 5 mg/kg (n=108) of pregabalin or placebo (n=101) orally as a single dose approximately 90 minutes before transportation to the veterinary clinic.
The study had two primary efficacy variables. The first primary variable was the owner's assessment of the treatment effect based on the cat's stress, anxiety and/or fear during transportation in a car. The second primary variable was the investigator's assessment of the treatment effect based on the cat's stress, anxiety and/or fear during clinical examination at the veterinary clinic. Both were assessed using a numerical rating scale with the scores 1-5.

[2] = single dose approximately 90 minutes before transportation

Structure (SMILES): CC(C)C[C@H](CN)CC(=O)O [pregabalin]
- Water solubility as the function of pH ([1]; pregabalin as such, when pH is lower than about 4.4, FIG. 1): increased significantly
- Physical stability (precipitation of pregabalin) ([1]; with addition of 2.0 mg/ml sodium benzoate, FIG. 1): further improved the physical stability
- Ataxia and sedation (cats; single dose): did not produce marked ataxia or excessive sedation
- Investigator's assessment of treatment effect during clinical examination, % of cats, Score 1 Excellent (cats; [2]): 14.3%
- Investigator's assessment of treatment effect during clinical examination, % of cats, Score 2 Good (cats; [2]): 41.0%
- Investigator's assessment of treatment effect during clinical examination, % of cats, Score 3 Fair (cats; [2]): 27.6%
- Investigator's assessment of treatment effect during clinical examination, % of cats, Score 4 Poor (cats; [2]): 10.5%
- Investigator's assessment of treatment effect during clinical examination, % of cats, Score 5 Very poor (cats; [2]): 6.7%
- Owner's assessment of treatment effect during transportation, % of cats, Score 1 Excellent (cats; [2]): 17.1%
- Owner's assessment of treatment effect during transportation, % of cats, Score 2 Good (cats; [2]): 34.3%
- Owner's assessment of treatment effect during transportation, % of cats, Score 3 Fair (cats; [2]): 23.8%
- Owner's assessment of treatment effect during transportation, % of cats, Score 4 Poor (cats; [2]): 14.3%
- Owner's assessment of treatment effect during transportation, % of cats, Score 5 Very poor (cats; [2]): 10.5%
